Where a SMILES comes first, the peptide text is derived from it. The star is where a group is joined. Cbz = O=C(OCc1ccccc1)*; CH2Cl = ClC*; CH2F = FC*
Key:
L929 cells [1] = assay: Cell death analysis (propidium iodide staining, flow cytometry) in L929 cells; type: cell-based, mouse; conditions: for Induction of cell death (% cell loss): 40 hours, FIG. 9
Procedure: (§1) Cell viability was determined after treatments by staining with propidium iodide (2 μg/mL) and flow cytometric analysis on a FACScan. Percent cell death was quantitated as previously described (26).
In mouse L929 fibroblastic cells, tumor necrosis factor (TNF), oxidants, ceramide, and radiation can induce caspase-independent death (11). […] L929 cells were treated with 1 ul of dimethyl sulfoxide (DMSO) FIG. 1A (a and c) or 20 uM zVAD (b and d) for 24 hours and examined by phase contrast microscopy (a and b); or 4′,6′-diamidino-2-phenylindole-staining and fluorescent microscopy (c and d). Magnification: 200×. […] The percentage of vaculated cells is the fraction of cells that have 10 or more autophagic vacuoles by TEM. Statistical analysis is shown in FIG. 4 and morphometric analysis of zVAD-induced autophagy in L929 cells is quantitated in Table 1 setforth below. […]
L929 cells were treated with 1 ul/ml DMSO, 20 uM zVAD, 20 uM zFA, 20 uM LEHD, 20 uM DEVD, or 20 uM zAAD for 40 hours, and % cell loss was quantified by flow cytometry. […] Because zVAD is a potent inhibitor of caspase-8, it likely exerted its death effect through inhibition of caspase-8.

[2] = tested on: mouse peritoneal macrophages; assay: Cell loss by flow cytometry in mouse peritoneal macrophages; type: cell-based; conditions: FIG. 7
Procedure: as §1
(§2) The RAW264.7 cells were treated with 0.1 ug/ml Wortmannin (WM) or 10 mM 3-methyladenine (3-MA) for 1 hr and the with 100 uM zVAD for 48 hrs, after which cell loss was quantitated by flow cytometry. […] Mouse peritoneal macrophages cells were treated with 0.1 ug/ml Wortmannin (WM) or 10 mM 3-methyladenine (3-MA) for 1 hr and with 100 uM zVAD for 24 hrs, after which cell loss were quantitated by flow cytometry.

RAW264.7 cells = assay: Cell loss by flow cytometry in RAW264.7 cells; type: cell-based, mouse; conditions: FIG. 6
Procedure: as §1, §2

L929 cells [3] = assay: Transmission electron microscopy morphometric analysis of autophagy in L929 cells; type: cell-based, mouse; conditions: for Apoptotic cell / Autophagic and apoptotic features / Autophagic cells(total) / Lytic/necrotic cell / Mild autophagy (cell with 10~19 vacuoles) / Moderate autophagy (cell with 20~29 vacuoles) / Normal cells / Severe Autophagy (cell with 30 or more vacuoles) / Vacuolated(but not autophagic): TEM, of total 100
Procedure: Cells were fixed in 3% glutaraldehyde in 0.1 M MOPS buffer (pH 7.0) for 8 hrs at room temperature, 3% glutaraldehyde/1% paraformaldehyde in 0.1 M MOPS buffer (pH 7.0) for 16 hours at 4° C., post-fixed in 1% osmium tetroxide for 1 hour, embedded in Spurr's resin, sectioned, double stained with Uranyl acetate and Lead citrate, and analyzed using a Zeiss EM 10 transmission electron microscope. For each treatment or control group, at least 100 cells from randomly chosen transmission electron microscopy fields were analyzed for quantification of morphological features. Cells with ≧10 vacuoles were scored as autophagy positive. Cells were stratified as follows: 0 (≦9 vacuoles/cell), 1(10-19 vacuoles/cell), 2 (20-29 vacuoles/cell), 3 (≧30 vacuoles/cell). Scores were ranked and comparisons of treatment to control groups were made using the Mann-Whitney U test using the Statview 5.0.1 program. Statistical analysis of the differences in FIG. 1, panels D, E, F, and G and FIG. 2A, B, D were significant (p<0.0001).
In mouse L929 fibroblastic cells, tumor necrosis factor (TNF), oxidants, ceramide, and radiation can induce caspase-independent death (11). […] L929 cells were treated with 1 ul of dimethyl sulfoxide (DMSO) FIG. 1A (a and c) or 20 uM zVAD (b and d) for 24 hours and examined by phase contrast microscopy (a and b); or 4′,6′-diamidino-2-phenylindole-staining and fluorescent microscopy (c and d). Magnification: 200×. […] The percentage of vaculated cells is the fraction of cells that have 10 or more autophagic vacuoles by TEM. Statistical analysis is shown in FIG. 4 and morphometric analysis of zVAD-induced autophagy in L929 cells is quantitated in Table 1 setforth below.

[4] = tested on: c-Jun N-terminal kinase (JNK); assay: Detection of phosphorylated JNK/SAPK by Western blot in L929 cells; type: cell-based, mouse; conditions: zVAD 24 hrs, 2% FBS, FIG. 2B
Procedure: L929 cells were treated with DMSO or zVAD for 24 hrs in the presence of 2% FBS. The cell lysate was spun for 10 minutes at 13000 rpm. 20 ul of the c-Jun beads (SAPK/JNK assay kit from Cell Signaling) were added to the supernatant and incubated overnight at 4° C. Beads were washed 4 times with lysis buffer and resuspended in 50 ul of 1× sample buffer. Samples were boiled for 5 minutes and analyzed by SDS-PAGE and Western blot for phosphorylated SAP/JNK by probing with phospho-JNK antibody.
Death receptors can elicit nonapoptotic death through the “receptor-interacting protein” (RIP), a death-domain-containing, serine-threonine kinase (6, 7). […] For example, cells were treated with zVAD after transfection with RIP RNAi or nonspecific (NS) oligonucleotides. Reduction in cell number (solid bars) and the fractions of cells with autophagic features based on TEM (open bars) are shown in FIG. 2A. FIG. 2B is a western blot for phospho-JNK (left lane) or total JNK protein (right lane) after zVAD treatment. zVAD activated c-Jun N-terminal kinase (JNK) that is also activated by RIP in response to cytokines.

RIP = RIP cleavage by caspase-8 (Western blot, FIG. 11); type: cell-based; conditions: cells treated with zVAD
Description: It was observed that the signaling through the serine-threonine kinase RIP is essential for autophagic cell death. When RIP is cleaved and inactivated by caspase 8, then a mechanism is provided for the prevention of autophagic cell death. However, inhibition of caspase 8 allows RIP to transmit the signal needed to kill the cell through the autophagic pathway. […] Clearly, zVAD treatment prevents RIP from constitutive caspase-8 cleavage. The indicated band is the 42 kD proteolytic product that is characteristic of caspase-8 cleavage (1).

Cn1cnc(N)c2ncnc1-2 [3-MA, 3-methyladenine] was tested, and the “Effect on zVAD-induced cell loss” value (L929 cells [1]; WM 0.1 ug/ml or 3-MA 10 mM for 1 hour, then 20 uM zVAD for 36 hours, FIG. 1E) was “reduction in cell loss”, the “Effect on zVAD-induced cell death” value ([2]; 0.1 ug/ml WM or 10 mM 3-MA for 1 hr, then 100 uM zVAD for 24 hrs) was “arrested zVAD-induced cell death” and the “Effect on zVAD-induced cell death” value (RAW264.7 cells; 0.1 ug/ml WM or 10 mM 3-MA for 1 hr, then 100 uM zVAD for 48 hrs) was “arrested zVAD-induced cell death”.

With COC(=O)CCC(NC(=O)C(CC(=O)OC)NC(=O)OCc1ccccc1)C(=O)NC(C(=O)NC(CC(=O)OC)C(=O)CF)C(C)C (stereo not shown) [DEVD, benzyloxycarbonyl-Aspartyl-(O-methyl)-Glutamyl-(O-methyl)-Valyl-Aspartyl-(O-methyl)-fluoromethylketone] the “Induction of cell death (% cell loss)” value (L929 cells [1]; 20 uM, flow cytometry) was “no ability to induce cell death”.

In the case of O=C1c2ccccc2-c2n[nH]c3cccc1c23 [JNK inhibitor II, Anthra[1,9-cd]pyrazol-6 (2H)-one 1,9-pyrazoloanthrone], the “Effect on zVAD-induced cell death (% cell loss)” value (L929 cells [1]; 1 ug/ml inhibitor for 1 hour, then 20 uM zVAD for 40 hours, flow cytometry, FIG. 8) is reported as “blocked zVAD-induced cell death”.

COC(=O)CC(NC(=O)C(C)NC(=O)C(C)NC(=O)OCc1ccccc1)C(=O)CCl (stereo not drawn) [ZAAD, benzyloxycarbonyl-Alanyl-Alanyl-Aspartyl-(O-methyl)-chloromethylketone] (Cbz-Ala-Ala-Asp(OMe)-CH2Cl; configuration not given here) was tested, and the “Induction of cell death (% cell loss)” value (L929 cells [1]; 20 uM, flow cytometry) was “no ability to induce cell death”.

With C[C@@H]1C[C@@H]([C@H](O)CC2CC(=O)NC(=O)C2)C(=O)[C@@H](C)C1 [cycloheximide, Cycloheximide] the “Effect of protein synthesis inhibition on zVAD-induced cell death” value (L929 cells [1]; FIG. 2C) was “blocked cell death”.

In the case of COC(=O)CC(NC(=O)C(C)NC(=O)C(NC(=O)OCc1ccccc1)C(C)C)C(=O)CF (stereo not drawn) [zVAD, Benzyloxycarbonyl-Valyl-Alanyl-Aspartyl-(O-methyl)-fluoromethylketone] (Cbz-Val-Ala-Asp(OMe)-CH2F; configuration not given here), the “Time course of zVAD induced autophagy (percentage of vacuolated cells, 10 or more autophagic vacuoles by TEM)” value (L929 cells [3]; FIG. 1D) is reported as “vacuolated cells accumulated prior to cell death”, the Apoptotic cell (L929 cells [3]; zVAD 0 hrs) is reported as 0 and the “Autophagic and apoptotic features” value (L929 cells [3]; zVAD 0 hrs) is reported as 0. The “Autophagic cells(total)” value (L929 cells [3]; zVAD 0 hrs) was 0, the Lytic/necrotic cell (L929 cells [3]; zVAD 0 hrs) was 0 and the “Mild autophagy (cell with 10~19 vacuoles)” value (from here on “Mild autophagy”) (L929 cells [3]; zVAD 0 hrs) was 0. For the same compound, the “Moderate autophagy (cell with 20~29 vacuoles)” value (“Moderate autophagy” for short) (L929 cells [3]; zVAD 0 hrs) was 0, the Normal cells (L929 cells [3]; zVAD 0 hrs) was 85 and the “Severe Autophagy (cell with 30 or more vacuoles)” value (“Severe Autophagy” for short) (L929 cells [3]; zVAD 0 hrs) was 0. For the same compound, the “Vacuolated(but not autophagic)” value (L929 cells [3]; zVAD 0 hrs) was 15, the Apoptotic cell (L929 cells [3]; zVAD 8 hrs) was 4 and the “Autophagic and apoptotic features” value (L929 cells [3]; zVAD 8 hrs) was 1. The “Autophagic cells(total)” value (L929 cells [3]; zVAD 8 hrs) was 76, the Lytic/necrotic cell (L929 cells [3]; zVAD 8 hrs) was 0 and the “Mild autophagy” value (L929 cells [3]; zVAD 8 hrs) was 55. For the same compound, the “Moderate autophagy” value (L929 cells [3]; zVAD 8 hrs) was 20, the Normal cells (L929 cells [3]; zVAD 8 hrs) was 19 and the “Severe Autophagy” value (L929 cells [3]; zVAD 8 hrs) was 1. For the same compound, the “Vacuolated(but not autophagic)” value (L929 cells [3]; zVAD 8 hrs) was 0, the Apoptotic cell (L929 cells [3]; zVAD 12 hrs) was 1 and the “Autophagic and apoptotic features” value (L929 cells [3]; zVAD 12 hrs) was 1. The “Autophagic cells(total)” value (L929 cells [3]; zVAD 12 hrs) was 93, the Lytic/necrotic cell (L929 cells [3]; zVAD 12 hrs) was 3 and the “Mild autophagy” value (L929 cells [3]; zVAD 12 hrs) was 24. The “Moderate autophagy” value (L929 cells [3]; zVAD 12 hrs) was 59, the Normal cells (L929 cells [3]; zVAD 12 hrs) was 2 and the “Severe Autophagy” value (L929 cells [3]; zVAD 12 hrs) was 10. The “Vacuolated(but not autophagic)” value (L929 cells [3]; zVAD 12 hrs) was 0, the “Time after which death was complete” value (L929 cells [1]; 20 uM zVAD, FIG. 1B) was 40 h and the “Time at which death began after zVAD treatment” value (L929 cells [1]; 20 uM zVAD, FIG. 1B) was 12 h. For the same compound, the “Induction of death of L929 cells” value (L929 cells [1]; 20 uM, 24 hours, microscopy) was “directly induced the death of L929 cells”, the “Induction of cell death (% cell loss)” value (L929 cells [1]; 20 uM, flow cytometry) was “induced cell death” and the “Activation of JNK (phospho-JNK Western blot)” value [4] was “activated”. For the same compound, the “Induction of cell death” value ([2]; 100 uM zVAD for 24 hrs) was “induced cell death by the autophagic pathway”, the “Induction of cell death” value (RAW264.7 cells; 100 uM zVAD for 48 hrs) was “induced cell death by the autophagic pathway” and the “RIP cleavage fragments characteristic of caspase-8 activity” value (RIP) was “no cleaved fragments were found”.
